Test results: article PMC7893776, “Selecting an anti-malarial clinical candidate from two potent dihydroisoquinolones” (Malaria Journal, 2021)
Several values for one entry are separate records, joined by “and”; a condition that tells them apart may be missing. Equal values may be shown once. Read-outs that look alike come from different tables or passages of the source.

How the values were obtained:
[1] = Mouse plasma pharmacokinetics, single PO or IV dose; type: in vivo, female C57BL/6 mice; settings: for AUCinf / CL / Cmax / Half-life / Vss / CL/F / Tmax / V/F: mouse plasma; for bioavailability: po, read-out: Mouse F (oral bioavailability)
Source text: Studies were undertaken to determine the plasma pharmacokinetics of SJ733 and SJ311. These studies included: (i) single oral gavage (PO) or intravenous (IV) dose administration to female C57BL/6 mice; (ii) single PO or IV dose administration to male Sprague Dawley (SD) rats; (iii) single PO or IV dose administration to male beagle dogs; (iv) toxicokinetic (TK) study following single PO administration to male SD rats. The PO and IV formulation used for mouse studies at SJCRH was 1% hydroxypropyl-beta-cyclodextrin (w/v), 10% ethanol (v/v), 10% propylene glycol (v/v), 40% PEG-400 (v/v) and 39% PBS (pH 7.4) isotonic (v/v). Compounds were dosed orally as suspensions, and intravenously as filtered solutions. Compound concentrations were confirmed post filtration using UV spectroscopy. The IV formulation used for rat studies (Monash University) was the same as that used for mice. For PO dosing to rats (Monash University) at 2 mg/kg, a suspension formulation was used containing 0.5% (w/v) hydroxypropyl methylcellulose, 0.5% (v/v) benzyl alcohol and 0.4% (v/v) Tween 80. The formulation used for rat studies at SRI (PO, high dose) was the same as that used in mouse PK studies. The formulation for the high dose TK study at SRI was 0.5% methylcellulose in sterile water. The formulation used for dog studies was the same as that used in mouse PK studies. The PO and IV PK of SJ733 and SJ311 were studied in female C57BL/6 mice. Mice had access to water and food ad libitum throughout the pre- and post-dose sampling period. Doses were administered at 15 mg/kg for IV and 10–200 mg/kg for PO with 20 mice in each dosage group. Two samples were taken from each mouse, with the first sample being a retro-orbital bleed (~ 200 µL) at the indicated time point (5, 15, 30 min, 1, 4, 24 h) and the second being terminal cardiac puncture (~ 500 µL) at the indicated time point (usually 48 h). EDTA disodium was used as anticoagulant and added to whole blood (10% volume of EDTA for 1% w/v final concentration) followed by centrifugation at 13,000 rpm for 2 min. Plasma was collected and stored frozen at -20 °C until analysis. For studies at SJCRH, all blood samples were kept on wet ice after collection and processed to plasma within 30 min of collection. Plasma samples were kept on dry ice and transferred to ≤ − 20 °C until analysis. Mouse plasma samples were extracted via protein precipitation with cold acetonitrile. The detection of the SJ733, SJ311, and warfarin (IS) was conducted by LC–MS with SIR or LC–MS/MS with MRM detection. Aliquots (3 µL) were injected onto a Waters Acquity UPLC equipped with an ABI Sciex 6500 Qtrap MS/MS and separated using an Acquity BEH C18 column (50 × 2.1 mm, 1.7 µm) with a methanol–water gradient containing 0.1% formic acid. Plasma concentration time (Ct) data for SJ733 and SJ311 were grouped by nominal time point, and the mean Ct values were subjected to noncompartmental analysis (NCA) using Phoenix WinNonlin 8.1 (Certara USA, Inc., Princeton, NJ). For all experiments, the area under the Ct and first moment curves (AUC, AUMC) were estimated using the “linear up log down” method. The terminal phase was defined as at least three time points at the end of the Ct profile, and the elimination rate constant (Kel) was estimated using an unweighted log-linear regression of the terminal phase. The terminal elimination half-life (T1/2) was estimated as 0.693/Kel, and the AUC from time 0 to infinity ([…]) was estimated as the AUC to the last time point (AUClast) + Clast (predicted)/Kel with the […] similarly calculated. Additional parameters estimated included observed maximum concentration (Cmax), time of Cmax (Tmax), concentration at the last observed time point (Clast), time of Clast (Tlast), and the apparent oral terminal volume of distribution (V/F). The apparent oral clearance (CL/F), systemic clearance (CL) and volume of distribution at steady state (Vss) were all estimated using standard formulae [19].

CYP3A4 = biological target: T1, CYP3A4 (Homo sapiens, UniProt P08684); experiment: CYP450 inhibition, CYP3A4; type: in vitro ADME
T1 construct: purchased Cypex Ltd (Bactosomes)

[2] = Microsomal stability, mouse; type: in vitro ADME; settings: for CLint in vivo: scaled up using PBSF
Experimental: The metabolic stability assay was performed by incubating compounds individually (0.8, 4, or 20 µM) with mouse, rat, dog and human liver microsomes (Fisher, 0.5 mg/mL protein concentration) at 37 °C. The metabolic reaction was initiated by the addition of a NADPH-regenerating system and quenched at various time points by the addition of acetonitrile according to a published method.
The remaining concentration of each compound was measured as a ratio of peak area to the internal standard. The log peak area ratio was plotted vs. time (h), and the slope was determined to calculate the elimination rate constant [k = (− 2.303) * slope]. If deviation from first order kinetics was evident, only the initial linear portion of the plot was used to determine the rate constate, k. The half-life (h) was calculated as t1/2 = 0.693/k. Intrinsic clearance in vitro was calculated as CLintin vitro = (1000)*(0.693/t1/2*60)/0.5, where microsomal concentration in the reaction solution was 0.5 mg/mL; 1000 and 60 are scaling factors for volume (µL) and time (min), respectively. The intrinsic in vitro clearance was scaled to the intrinsic in vivo clearance using physiology based scaling factor (PBSF): CLint in vivo= CLint in vitro *PBSF: (microsome protein/gram liver) * (gram liver/kg b.w.), with PBSF: 47 (mouse), 47(rat), 58 (dog), 32 (human); and liver weight proportions: 54.9 (mouse), 36.6 (rat), 32.9 (dog) 25.7 (human).

[3] = mouse, single PO 100 mg/kg vs IV
[4] = 10 µM, probe substrate Midazolam, replicate measurements
[5] = mouse microsomes, 20, 4, 0.8 µM
[6] = mouse microsomes, 0.8 µM, independent replicate to Table 4
[7] = mouse microsomes, 4 µM, independent replicate to Table 4
[8] = mouse microsomes, 20 µM, independent replicate to Table 4
[9] = female, C57BL/6, mouse, plasma, mouse, summary over the oral doses studied
[10] = female, C57BL/6, single IV 15 mg/kg, read-out: Half-life

T1 sequence (P08684 whole entry): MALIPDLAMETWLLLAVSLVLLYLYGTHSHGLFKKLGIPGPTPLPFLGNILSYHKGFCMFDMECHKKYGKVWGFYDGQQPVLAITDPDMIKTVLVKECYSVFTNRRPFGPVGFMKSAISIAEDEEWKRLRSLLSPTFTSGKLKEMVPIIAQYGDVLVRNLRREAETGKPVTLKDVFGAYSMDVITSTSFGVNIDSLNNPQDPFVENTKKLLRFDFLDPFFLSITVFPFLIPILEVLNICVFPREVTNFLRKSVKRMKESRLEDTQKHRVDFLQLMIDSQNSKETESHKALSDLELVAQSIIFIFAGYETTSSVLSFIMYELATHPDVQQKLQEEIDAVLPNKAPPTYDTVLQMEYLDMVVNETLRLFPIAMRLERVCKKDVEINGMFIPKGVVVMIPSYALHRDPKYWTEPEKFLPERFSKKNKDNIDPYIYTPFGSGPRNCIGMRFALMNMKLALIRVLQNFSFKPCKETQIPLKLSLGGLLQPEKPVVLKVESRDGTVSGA

| Compound | bioavailability [1, 9] | Half-life [1, 10] | AUCinf ([1]; single IV 15 mg/kg) | CL ([1]; single IV 15 mg/kg) | Cmax ([1]; single IV 15 mg/kg) | Half-life ([1]; single IV 15 mg/kg) | Vss ([1]; single IV 15 mg/kg) | AUCinf ([1]; single PO 100 mg/kg) | CL/F ([1]; single PO 100 mg/kg) | Cmax ([1]; single PO 100 mg/kg) | Half-life ([1]; single PO 100 mg/kg) | Tmax ([1]; single PO 100 mg/kg) | F [1, 3] | inhibition of CYP3A4 (CYP3A4; [4]) | CLint in vitro [2, 6] | CLint in vivo ([2]; mouse microsomes, 0.8 µM) | CLint in vitro [2, 7] | CLint in vivo ([2]; mouse microsomes, 4 µM) | CLint in vitro [2, 8] | CLint in vivo ([2]; mouse microsomes, 20 µM) | also measured |
| --- | --- | --- | --- | --- | --- | --- | --- | --- | --- | --- | --- | --- | --- | --- | --- | --- | --- | --- | --- | --- | --- |
| N#Cc1cc(NC(=O)C2c3ccccc3C(=O)N(CC(F)(F)F)C2c2cn[nH]c2)ccc1F (racemic) [(r)-SJ311] |  |  | 20.7 µM·h | 27.2 mL/min/kg | 13.4 µM | 1.56 h | 2.11 L/kg | 42 µM·h | 89 mL/min/kg | 10.5 ± 5.3 µM | 4.20 h | 0.5 h | 23.1% | 54% and 52% |  |  |  |  |  |  | V/F ([1]; single PO 100 mg/kg): 32.4 L/kg; CLint in vitro [2, 5]: <7 µl/min/mg protein; CLint in vivo [2, 5]: < 13.5 mL/min/kg |
| N#Cc1cc(NC(=O)C2c3ccccc3C(=O)N(CC(F)(F)F)C2c2cccnc2)ccc1F (racemic) [(r)-SJ733] |  |  | 10.8 µM·h | 49.7 mL/min/kg | 11.3 µM | 1.52 h | 2.41 L/kg |  |  |  |  |  |  | 42% and 33% | 9.1 ± 0.5 µl/min/mg protein | 21.4 ± 1.3 mL/min/kg | 10 ± 0.5 µl/min/mg protein | 23.4 ± 1.1 mL/min/kg | <7 µl/min/mg protein | < 13.5 mL/min/kg | AUCinf ([1]; single PO 50 mg/kg): 28 µM·h; CL/F ([1]; single PO 50 mg/kg): 67 mL/min/kg; Cmax ([1]; single PO 50 mg/kg): 10.1 ± 4.5 µM; Half-life ([1]; single PO 50 mg/kg): 1.72 h; Tmax ([1]; single PO 50 mg/kg): 0.5 h; AUCinf ([1]; single PO 200 mg/kg): 155.7 µM·h; CL/F ([1]; single PO 200 mg/kg): 54.2 mL/min/kg; Cmax ([1]; single PO 200 mg/kg): 12.7 ± 3.2 µM; Half-life ([1]; single PO 200 mg/kg): 14.1 h; Tmax ([1]; single PO 200 mg/kg): 5 h; V/F ([1]; single PO 200 mg/kg): 3.23 L/kg; F ([1]; mouse, single PO 50 mg/kg vs IV): 70%; F ([1]; mouse, single PO 200 mg/kg vs IV): 98% |
| N#Cc1cc(NC(=O)[C@H]2c3ccccc3C(=O)N(CC(F)(F)F)[C@@H]2c2cn[nH]c2)ccc1F [(+)-SJ311] |  |  |  |  |  |  |  |  |  |  |  |  |  |  |  |  |  |  |  |  | CLint ([2]; mouse microsomes, 0.8 µM): < 7 µl/min/mg protein; t1/2 ([2]; mouse microsomes, 0.8 µM): > 4 h |
| N#Cc1cc(NC(=O)[C@H]2c3ccccc3C(=O)N(CC(F)(F)F)[C@@H]2c2cccnc2)ccc1F [(+)-SJ733] |  |  |  |  |  |  |  | 53 µM·h | 67 mL/min/kg | 11.7 ± 1.2 µM | 3.17 h | 0.5 h | 80.8% |  | 33.9 ± 1.3 µl/min/mg protein | 79.3 ± 3.0 mL/min/kg | 27.2 ± 1.3 µl/min/mg protein | 63.8 ± 2.9 mL/min/kg | 15.9 ± 2.2 µl/min/mg protein | 37.3 ± 5.3 mL/min/kg | AUCinf ([1]; single PO 10 mg/kg): 4.27 µM·h; CL/F ([1]; single PO 10 mg/kg): 83.3 mL/min/kg; Cmax ([1]; single PO 10 mg/kg): 1.38 ± 0.21 µM; Half-life ([1]; single PO 10 mg/kg): 3.63 h; Tmax ([1]; single PO 10 mg/kg): 0.5 h; V/F ([1]; single PO 10 mg/kg): 26.2 L/kg; F ([1]; mouse, single PO 10 mg/kg vs IV): 65%; CLint ([2]; mouse microsomes, 0.8 µM): 35.4 ± 2.1 µl/min/mg protein; t1/2 ([2]; mouse microsomes, 0.8 µM): 0.7 ± 0.1 h |

Further lines, with some results ahead:

| bioavailability [1, 9] | Half-life [1, 10] | Compound | AUCinf ([1]; single IV 15 mg/kg) | CL ([1]; single IV 15 mg/kg) | Cmax ([1]; single IV 15 mg/kg) | Half-life ([1]; single IV 15 mg/kg) | Vss ([1]; single IV 15 mg/kg) | AUCinf ([1]; single PO 100 mg/kg) | CL/F ([1]; single PO 100 mg/kg) | Cmax ([1]; single PO 100 mg/kg) | Half-life ([1]; single PO 100 mg/kg) | Tmax ([1]; single PO 100 mg/kg) | F [1, 3] | inhibition of CYP3A4 (CYP3A4; [4]) | CLint in vitro [2, 6] | CLint in vivo ([2]; mouse microsomes, 0.8 µM) | CLint in vitro [2, 7] | CLint in vivo ([2]; mouse microsomes, 4 µM) | CLint in vitro [2, 8] | CLint in vivo ([2]; mouse microsomes, 20 µM) | also measured |
| --- | --- | --- | --- | --- | --- | --- | --- | --- | --- | --- | --- | --- | --- | --- | --- | --- | --- | --- | --- | --- | --- |
| 65 to 81% | 1.38 to 1.65 h | N#Cc1cc(NC(=O)[C@H]2c3ccccc3C(=O)N(CC(F)(F)F)[C@@H]2c2cccnc2)ccc1F (racemic) [SJ733] |  |  |  |  |  |  |  |  |  |  |  |  |  |  |  |  |  |  | clearance ([1]; female, C57BL/6, mouse, plasma, observed in mice, read-out: in vivo clearance (converted)): ~50 mL/min/kg; CYP3A4 inhibition, in words (CYP3A4): moderate inhibitors |
| 22 to 23% | 1.38 to 1.56 h | N#Cc1cc(NC(=O)[C@H]2c3ccccc3C(=O)N(CC(F)(F)F)[C@@H]2c2cn[nH]c2)ccc1F [SJ311] |  |  |  |  |  |  |  |  |  |  |  |  |  |  |  |  |  |  | Mouse F (oral bioavailability) ([1]; mouse, summary over the oral doses studied): 23%; CYP3A4 inhibition, in words (CYP3A4): moderate inhibitors; inhibition at 10 µM (CYP3A4; human, pH 7.4, 10 µM, probe substrate Midazolam, replicate measurements): 53% |
